{
  "source": "patent US9827223B2",
  "about": "(priority 2001, dated 2017)",
  "key": {"VR1eGFP [1]": {"target": "T1, VR1eGFP (Rattus norvegicus, UniProt O35433)", "T1 construct": "expressed in transfected cells; host or cells: Cos7 and HEK293 cells, transient transfection", "T1 sequence (O35433 whole entry)": "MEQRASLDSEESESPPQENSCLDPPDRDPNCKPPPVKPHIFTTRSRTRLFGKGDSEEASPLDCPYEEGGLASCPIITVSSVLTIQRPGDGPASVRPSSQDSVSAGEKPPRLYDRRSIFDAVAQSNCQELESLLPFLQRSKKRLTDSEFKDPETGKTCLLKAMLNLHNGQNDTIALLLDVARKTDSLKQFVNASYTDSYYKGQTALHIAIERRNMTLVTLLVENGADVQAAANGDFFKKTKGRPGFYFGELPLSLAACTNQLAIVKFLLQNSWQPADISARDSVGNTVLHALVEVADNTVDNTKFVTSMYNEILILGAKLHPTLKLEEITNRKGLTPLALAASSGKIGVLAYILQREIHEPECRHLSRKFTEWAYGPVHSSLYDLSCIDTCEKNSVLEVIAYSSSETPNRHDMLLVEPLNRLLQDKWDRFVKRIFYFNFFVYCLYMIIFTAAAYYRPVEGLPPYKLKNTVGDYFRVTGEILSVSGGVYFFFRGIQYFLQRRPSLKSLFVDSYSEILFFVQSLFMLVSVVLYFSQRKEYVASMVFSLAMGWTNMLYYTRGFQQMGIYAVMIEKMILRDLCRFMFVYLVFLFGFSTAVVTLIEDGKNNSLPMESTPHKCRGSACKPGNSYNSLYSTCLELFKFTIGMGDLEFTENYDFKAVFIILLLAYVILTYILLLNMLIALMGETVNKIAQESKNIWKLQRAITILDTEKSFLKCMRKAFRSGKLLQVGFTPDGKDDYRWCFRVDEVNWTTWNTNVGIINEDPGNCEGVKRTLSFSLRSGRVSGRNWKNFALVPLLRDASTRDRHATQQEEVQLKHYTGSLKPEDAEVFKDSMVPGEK", "format": "cell-based"}, "VR1eGFP [2]": {"target": "T1, VR1eGFP", "test": "cell-based", "conditions": "N=3; read-out: ED50 of induced Ca2+ uptake"}, "[3]": {"target": "T2, VR1ε (C-terminal epsilon epitope-tagged vanilloid 1 receptor) (Rattus norvegicus, UniProt O35433)", "T2 construct": "expressed in transfected cells; host or cells: NIH 3T3 cells, G418-selected colony A5, pMTH-VR1ε plasmid", "T2 sequence (O35433 whole entry)": "as above", "format": "cell-based"}, "VR1eGFP-expressing cells": {"system": "VR1eGFP-expressing cells", "format": "cell-based"}, "VR1eGFP [4]": {"target": "T1, VR1eGFP", "format": "cell-based", "conditions": "1 nM"}, "trigeminal ganglion [5]": {"system": "trigeminal ganglion", "format": "in vivo, Sprague Dawley rats"}, "trigeminal ganglion [6]": {"system": "trigeminal ganglion", "design": "species or system Sprague Dawley rats", "conditions": "rat, in vivo"}, "[7]": {"system": "C-fiber neurons of the trigeminal ganglion", "design": "species or system Sprague Dawley rats", "conditions": "rat, in vivo"}, "[8]": {"design": "species or system Sprague Dawley rats", "conditions": "rat, in vivo"}, "[9]": {"design": "species or system Sprague Dawley rats", "conditions": "rat, in vivo", "remark": "listed apart in the source"}, "dorsal root ganglion": {"system": "dorsal root ganglion", "design": "species or system patient", "conditions": "human, in vivo"}, "[10]": {"conditions": "rat, in vivo, cited from earlier work"}, "eGFP- and e-tagged VR1": {"target": "T3, eGFP- and e-tagged VR1 (Rattus norvegicus, UniProt O35433)", "T3 construct": "expressed in transfected cells; host or cells: Cos7 cells", "T3 sequence (O35433 whole entry)": "as above", "format": "binding"}},
  "note": "Read-outs that look alike come from different tables or passages of the source.",
  "data": [
    {"smiles": "C=C(C)[C@]12C[C@@H](C)[C@@]34O[C@](Cc5ccccc5)(O[C@@H]1[C@@H]3C=C(COC(=O)Cc1ccc(O)c(OC)c1)C[C@]1(O)C(=O)C(C)=C[C@@H]41)O2", "note": "[RTX, Resiniferatoxin]", "values": [
      {"measurement": "currents and capacitance change in non-transfected cells", "setting": "VR1eGFP [1]", "result": "neither evoked currents nor induced a change in capacitance"},
      {"measurement": "loss of plasma membrane", "setting": "VR1eGFP [1]", "result": "about 600 μm^2"},
      {"measurement": "receptor desensitization", "setting": "VR1eGFP [1]", "result": "complete desensitization"},
      {"measurement": "drop of membrane capacitance of VR1eGFP-transfected cells", "setting": "VR1eGFP [1]; 125 pM", "result": "6±2.5", "unit": "pF"},
      {"measurement": "EC50", "setting": "VR1eGFP [2]", "result": "0.1 ± 0.05", "unit": "nM"},
      {"measurement": "45Ca2+-uptake above the base line of non-transfected NIH3T3 cells", "setting": "[3]", "result": "> 50", "unit": "fold"},
      {"measurement": "ER, plasma membrane and mitochondria morphology", "setting": "VR1eGFP-expressing cells", "result": "dramatic fragmentation of the ER"},
      {"measurement": "nuclear membrane fragmentation at lower doses", "setting": "VR1eGFP-expressing cells", "result": "slower nuclear membrane fragmentation"},
      {"measurement": "mitochondrial reaction", "setting": "VR1eGFP-expressing cells; 1 nM", "result": "mitochondria reacted rapidly"},
      {"measurement": "time to bursting of the plasma membrane", "setting": "VR1eGFP-expressing cells; 1 nM", "result": "about 45 minutes"},
      {"measurement": "peak [Ca2+]i", "setting": "VR1eGFP [4]", "result": 500, "unit": "nM"},
      {"measurement": "time to elevation of [Ca2+]i", "setting": "VR1eGFP [4]", "result": "≤ 10", "unit": "s"},
      {"measurement": "eye wipes in the first minute", "setting": "trigeminal ganglion [5]; n=4", "result": "7±3", "unit": "wipes"},
      {"measurement": "eye wipes in the first minute", "setting": "trigeminal ganglion [5]; rat, in vivo", "result": "no eye wipes"},
      {"measurement": "plasma extravasation", "setting": "trigeminal ganglion [6]", "result": "dramatic blockade"},
      {"measurement": "fate of CGRP-stained cells in the injected ganglion", "setting": "[7]", "result": "killed"},
      {"measurement": "paw withdrawal latency", "setting": "[8]", "result": "18 ± 1.2", "unit": "s"},
      {"measurement": "mechanical pinch sensitivity", "setting": "[9]", "result": "No attenuation"},
      {"measurement": "symptoms of chronic pain", "setting": "dorsal root ganglion", "result": "reduction of the symptoms of chronic pain"},
      {"measurement": "time without restoration of pain sensitivity (thermal analgesia)", "setting": "[10]; sc", "result": "over 7 days"}
    ]},
    {"smiles": "Oc1cc2c(cc1O)CN(C(=S)NCCc1ccc(Cl)cc1)CCC2", "note": "[capsazepine]", "values": [
      {"measurement": "effect on VR1eGFP-mediated current", "setting": "VR1eGFP [1]", "result": "attenuated"},
      {"measurement": "inhibition of [3H]RTX binding", "setting": "eGFP- and e-tagged VR1", "result": "almost completely inhibited"}
    ]},
    {"smiles": "COc1cc(CNC(=O)CCCC/C=C/C(C)C)ccc1O", "note": "[capsaicin]", "values": [
      {"measurement": "current induced in voltage-clamped VR1eGFP cells", "setting": "VR1eGFP [1]", "result": "induced a large inward current"},
      {"measurement": "mitochondrial reaction", "setting": "VR1eGFP-expressing cells; 1 uM", "result": "mitochondria reacted rapidly"},
      {"measurement": "thermal analgesia", "setting": "[10]", "result": "No thermal analgesia"}
    ]}
  ]
}
